Like-named read-outs stand apart in the source and are kept apart here. In the oligonucleotide strings, read from the 5' end, every base follows the letter of its sugar. An asterisk marks phosphorothioate; unmarked linkages are phosphodiester. Other units and linkages are bracketed, terminal groups are in braces. A string of capitals states the bases alone. [tz] = triazole internucleoside linkage replacing phosphodiester; l = locked nucleic acid (LNA); [5mC] = 5-methylcytosine; d = 2'-deoxy (DNA)
Tests used:
[1] = test system: RNA Target 3′-rGCUGCGMACGUCG (M = G, C, U); assay: Mismatch discrimination against RNA targets containing a mismatch nucleotide (UV melting); type: binding
[2] = test system: RNA target: 5′-rGCU GCA AGC GUC G (SEQ ID NO: 34); assay: UV thermal melting, single triazole linkage (MeC-T step), RNA target; type: binding
[3] = test system: DNA target: 5′-dGCT GCA AGC GTC G (SEQ ID NO: 33); assay: UV thermal melting, single triazole linkage (MeC-T step), DNA target; type: binding
[4] = test system: DNA target; 5′-dGCT AGA GAA GTC G (SEQ ID NO: 37); assay: UV thermal melting, two triazole linkages (MeC-T steps), DNA target; type: binding; conditions: Table 6; for Tm, DNA target: 10 mM phosphate, 200 mM NaCl, pH 7.0, 3.0 μM each strand; for ΔTm/mod, DNA target: relative to unmodified ON7
[5] = test system: RNA target; 5′-rGCU AGA GAA GUC G (SEQ ID NO: 38); assay: UV thermal melting, two triazole linkages (MeC-T steps), RNA target; type: binding; conditions: for Tm, RNA target / ΔTm/mod, RNA target: Table 6; for Tm, RNA target: 10 mM phosphate, 200 mM NaCl, pH 7.0, 3.0 μM each strand; for ΔTm/mod, RNA target: relative to unmodified ON7
[6] = test system: DNA target: 5′-dGCT GGA GAG GTC G (SEQ ID NO: 39); type: binding; conditions: for Tm, DNA target: pH 7
[7] = test system: RNA target 5′-rGCU GCA GGC GUC G (SEQ ID NO: 24); type: binding; conditions: for Tm, RNA target: pH 7
[8] = test system: DNA target 5′-dGCT GCA GGC GTC G (SEQ ID NO: 23); type: binding; conditions: for Tm, DNA target: pH 7
[9] = test system: Phosphodiesterase 1 from Crotalus adamanteus venom
[10] = change in Tm relative to the fully matched duplex (M = A)
[11] = Table 3, fully matched duplex (M = A)
[12] = Table 5, 10 mM phosphate, 200 mM NaCl, pH 7.0, 3.0 μM each strand

5′-dCGACG^MeCtT^LTGCAGC [ON2]
ΔTm, mismatch M = C [1]: -15.6 | ΔTm, mismatch M = G [1]: -3.3 | ΔTm, mismatch M = U [1]: -13.4 | Tm, RNA target M = A [2]: 62 °C | increase in Tm relative to the duplex with only the triazole linkage [2]: 5.4 | ΔTm, RNA target (change in Tm relative to the unmodified duplex) [2]: −0.8 | Tm, RNA target ([2]; pH 7): 62 °C | increase in thermal stability compared to the duplex containing only the triazole linkage [3]: 2.9 | ΔTm, DNA target (change in Tm relative to the unmodified duplex) [3]: −6.0 | Tm, DNA target ([3]; pH 7): 58.2 °C

5′-dCGA^MeCtT^LTCT^MeCtT^LAGC (DNA dCdGdAd[5mC][tz]lTdTdCdTd[5mC][tz]lTdAdGdC; further chemistry not given here) [ON8]
Tm, DNA target [4]: 48.0 °C | ΔTm/mod, DNA target [4]: -4.5 °C/modification | increase in Tm per modification relative to two triazole linkages without 3′-LNA ([5]; ON8 compared with ON9, RNA target): 5.0 °C/modification | drop in Tm per modification compared to unmodified ON7 ([5]; RNA target): 0.8 °C/modification | Tm, RNA target [5]: 57.1 °C | ΔTm/mod, RNA target [5]: -0.8 °C/modification

CGA^MeCTTCT^MeCTAGC (DNA dCdGdAd[5mC]dTdTdCdTd[5mC]dTdAdGdC) [ON7]
Tm, DNA target [4]: 57.1 °C | Tm, RNA target [5]: 58.8 °C

5′-dCGACG^MeC^LtT^LTGCAGC [ON6]
additional stabilising effect of LNA on the 5′-side of the triazole [2]: no significant additional stabilising effect | ΔTm, RNA target (change in Tm relative to the unmodified duplex) [2]: +0.1 | Tm, RNA target ([2]; pH 7): 62.9 °C | ΔTm, DNA target (change in Tm relative to the unmodified duplex) [3]: -5.8 | Tm, DNA target ([3]; pH 7): 58.4 °C

CGACG^MeCT^LTGCAGC [ON4]
ΔTm, mismatch M = C [1]: -15.2 | ΔTm, mismatch M = G [1]: -4.8 | ΔTm, mismatch M = U [1]: -13.7 | Tm, RNA target M = A [2]: 68.9 °C | ΔTm, RNA target (change in Tm relative to the unmodified duplex) [2]: 6.1 | Tm, RNA target ([2]; pH 7): 68.9 °C | ΔTm, DNA target (change in Tm relative to the unmodified duplex) [3]: 3.3 | Tm, DNA target ([3]; pH 7): 67.5 °C

5′-dCGA^MeCp^MeC^LTCT^MeCp^MeC^LAGC [ON36]
ΔTm/mod, DNA target [6]: +2.8 | Tm, DNA target [6]: 72.2 °C

5′-dCGACG^MeCt^MeCTGCAGC [ON12]
ΔTm, RNA target (relative to the unmodified duplex ON33) [7]: -5.8 | Tm, RNA target [7]: 63.4 °C | ΔTm, DNA target (relative to the unmodified duplex ON33) [8]: -6.4 | Tm, DNA target [8]: 62 °C

5′-dCGA^MeCp^MeCTCT^MeCp^MeCAGC [ON35]
Tm, DNA target [6]: 66.6 °C

5′-dCGA^MeCtTTCT^MeCtTAGC (DNA dCdGdAd[5mC][tz]dTdTdCdTd[5mC][tz]dTdAdGdC; further chemistry not given here) [ON9]
Tm, DNA target [4]: 42.3 °C | ΔTm/mod, DNA target [4]: -7.4 °C/modification | Tm, RNA target [5]: 47.1 °C | ΔTm/mod, RNA target [5]: -5.8 °C/modification

5′-dCGACG^MeCt^MeC^LTGCAGC [ON11]
ΔTm, RNA target (relative to the unmodified duplex ON33) [7]: -0.5 | Tm, RNA target [7]: 68.6 °C | ΔTm, DNA target (relative to the unmodified duplex ON33) [8]: -5.1 | Tm, DNA target [8]: 63.5 °C

5′-dCGA^MeCt^MeCTCT^MeCt^MeCAGC [ON14]
ΔTm/mod, DNA target [6]: -7.3 | Tm, DNA target [6]: 51.9 °C

CGACG^MeCTTGCAGC (DNA CGACGCTTGCAGC; DNA, [5mC] at 6, backbone not given here) [ON1]
ΔTm, mismatch M = C [1, 10]: -16.3 °C | ΔTm, mismatch M = G [1, 10]: -3.9 °C | ΔTm, mismatch M = U [1, 10]: -13.7 °C | time to full digestion by 3′-exonuclease (gel) [9]: ≤ 5 min | Tm, RNA target M = A [2, 11]: 62.8 °C | Tm, RNA target [2, 12]: 62.8 °C | Tm, DNA target [3, 12]: 64.2 °C

5′-dCGACG^MeC^LtTTGCAGC (DNA dCdGdAdCdGl[5mC][tz]dTdTdGdCdAdGdC; further chemistry not given here) [ON5]
additional stabilising effect of LNA on the 5′-side of the triazole ([2]; DNA:RNA hybrids or DNA duplexes): no significant additional stabilising effect | Tm, RNA target [2, 12]: 55.5 °C | ΔTm, RNA target (change in Tm relative to the unmodified duplex) ([2]; Table 5, relative to ON1): -7.2 °C | Tm, DNA target [3, 12]: 52.7 °C | ΔTm, DNA target (change in Tm relative to the unmodified duplex) ([3]; Table 5, relative to ON1): -11.5 °C

CGA^MeCT^LTCT^MeCT^LAGC (DNA dCdGdAd[5mC]lTdTdCdTd[5mC]lTdAdGdC) [ON10]
Tm, DNA target [4]: 62.2 °C | ΔTm/mod, DNA target [4]: +2.5 °C/modification | Tm, RNA target [5]: 70.0 °C | ΔTm/mod, RNA target [5]: +5.6 °C/modification

5′-d CGACG^MeCp^MeC^LTGCAGC [ON34]
ΔTm, RNA target (relative to the unmodified duplex ON33) [7]: +5.6 | Tm, RNA target [7]: 74.7 °C | ΔTm, DNA target (relative to the unmodified duplex ON33) [8]: +3.3 | Tm, DNA target [8]: 72 °C

5′-dCGACG^MeCtTTGCAGC (DNA dCdGdAdCdGd[5mC][tz]dTdTdGdCdAdGdC; further chemistry not given here) [ON3]
ΔTm, mismatch M = C [1, 10]: -16.1 °C | ΔTm, mismatch M = G [1, 10]: -2.2 °C | ΔTm, mismatch M = U [1, 10]: -12.9 °C | Tm, RNA target M = A [2, 11]: 56.6 °C | Tm, RNA target [2, 12]: 56.6 °C | ΔTm, RNA target (change in Tm relative to the unmodified duplex) ([2]; Table 5, relative to ON1): -6.2 °C | Tm, DNA target [3, 12]: 55.3 °C | ΔTm, DNA target (change in Tm relative to the unmodified duplex) ([3]; Table 5, relative to ON1): -8.9 °C

5′-dCGA^MeCt^MeC^LTCT^MeCt^MeC^LAGC [ON13]
ΔTm/mod, DNA target [6]: -5.1 | Tm, DNA target [6]: 56.4 °C

5′-d CGACG^MeCp^MeCTGCAGC [ON33]
Tm, RNA target [7]: 69.1 °C | Tm, DNA target [8]: 68.7 °C

Source: US11104700B2, “Oligonucleotides” (OXFORD UNIVERSITY INNOVATION LIMITED, priority 2017, dated 2021)
